The values that follow are results of earlier work, collected in US20030073608A1 (priority 2001, published 2003).

The structures appear in SMILES notation.

Data set [1] has as its system ventral tegmental dopamine cells (A10). Particulars: limbic-related A10 cells; Bymaster et al., Eur. J. Pharmacol. 1998.
The subject of data set [2] is substantia nigra dopamine cells (A9). As to conditions: Bymaster et al., Eur. J. Pharmacol. 1998.

`CCCSc1nsnc1[C@H]1CN2CCC[C@H]1C2` [PTAC]: the “antagonism of electrophysiological responses in ventral tegmental dopamine cells (A10)” value in data set [1] was “antagonizes electrophysiological responses”. The “antagonism of substantia nigra dopamine cells (A9)” value in data set [2] is “does not antagonize”.
